Laboratory results from PubChem BioAssay AID651630 (Sanford-Burnham Center for Chemical Genomics, 2012).
Calls of active or inactive are those of the source.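 The calls were made as follows: active = lipid-stain IC50 at or below a set limit, with nuclear-stain toxicity IC50 at least five times higher; inactive = the rest.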

What was measured:
DAPI = assay: triacylglycerol accumulation inhibitor potency, dose response, cell-based, panel, Nile Red and DAPI fluorescence, H9c2 (AID 651630); conditions: H9c2 cells, DAPI nuclear fluorescence (cytotoxicity counter-readout), oleic acid;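 also: cells exposed to compound overnight before fixation and staining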
TAG = assay: as above; conditions: H9c2 cells, Nile Red TAG fluorescence, oleic acid

| Compound | IC50 cytotoxicity (DAPI nuclear signal decrease) (DAPI; mean of runs) | IC50 cytotoxicity (DAPI nuclear signal decrease) (DAPI; run 1) | IC50 cytotoxicity (DAPI nuclear signal decrease) (DAPI; run 2) | IC50 (TAG; run 1) | IC50 (TAG; run 2) | IC50 (TAG; mean of runs) |
| --- | --- | --- | --- | --- | --- | --- |
| COc1ccc2c(c1)c(CC(=O)Nc1ccc(C)cc1)c(C)n2C(=O)c1ccc(Cl)cc1 | > 25 µM (inactive) | > 25 µM | > 25 µM | 20.1 µM | > 25 µM | – |
| COc1cc(-c2cc(NC=O)c3ncc(-c4cccc(C(=O)N(C)C)c4)n3c2)cc(OC)c1OC | > 25 µM (inactive) | > 25 µM | > 25 µM | 5.06 µM | 12.7 µM | 8.89 µM |
| CCOC(=O)[C@H]1[C@H]2COc3ccc(C)cc3[C@@H]2N2C(=O)c3cc(Br)ccc3NC(=O)[C@@]12C | > 25 µM (inactive) | > 25 µM | > 25 µM | 22.2 µM | 21 µM | 21.6 µM (inactive) |
| OCCCn1c(C2CCCN2c2nc(-c3ccc(Cl)cc3)cs2)nc2cc(Cl)c(N3CCCCC3)cc21 (stereo unspecified) | > 25 µM (inactive) | > 25 µM | > 25 µM | 24.6 µM | > 25 µM | – |
| CCN1C(=O)[C@H]2[C@@H](c3ccc(-c4cccc(Cl)c4)cc3)N[C@@](Cc3ccccc3)(C(=O)OC)[C@H]2C1=O | > 25 µM (inactive) | > 25 µM | > 25 µM | 15.9 µM | 24.1 µM | 20 µM (inactive) |
| CCOc1ccccc1C1C2=C(COC2=O)Nc2cc3c(cc21)OCO3 (stereo unspecified) | > 25 µM (inactive) | > 25 µM | > 25 µM | > 25 µM | < 0.78 µM | – |
| CCC(=NCCc1c(C)[nH]c2ccc(OC(F)(F)F)cc12)C1=C(O)CC(c2ccccc2)CC1=O (stereo unspecified) | > 25 µM (inactive) | > 25 µM | > 25 µM | > 25 µM | > 25 µM | > 25 µM (inactive) |
| O=C1c2ccccc2C(=O)c2c1ccc(C(=O)N1CCCCC1)c2NCCO | – | > 25 µM | > 25 µM | 3.47 µM | 3.38 µM | 3.42 µM |
| C=CCNc1nc(Nc2ccc(OC)c(OC)c2)c2sc(-c3ccccc3)cc2n1 | > 25 µM (inactive) | > 25 µM | > 25 µM | 7.19 µM | 3.13 µM | 5.16 µM |
| COc1ccc(CC(N)c2csc(NC(=O)NCc3ccccc3)n2)cc1 (stereo unspecified) | > 25 µM (inactive) | > 25 µM | > 25 µM | 20.2 µM | 15.5 µM | 17.9 µM (inactive) |
| O=C1C=CC(O)C2(CO)OC12 (stereo unspecified) | > 25 µM (inactive) | > 25 µM | > 25 µM | 14.4 µM | > 25 µM | – |
| CCC(C)(C)NC(=O)C(c1ccc(OC)cc1)N(Cc1ccco1)C(=O)CCC(=O)Nc1cc(C)on1 (stereo unspecified) | > 25 µM (inactive) | > 25 µM | > 25 µM | 21.1 µM | 14.7 µM | 17.9 µM (inactive) |
| CCc1nc(C)c(C(=O)N2CCCC(C(=O)Nc3cccc(-c4cccc(C)c4)c3)C2)o1 (stereo unspecified) | > 25 µM (inactive) | > 25 µM | > 25 µM | > 25 µM | > 25 µM | > 25 µM (inactive) |
| O=C(CSc1nc2ccc(Nc3nc(N4CCOCC4)nc(N4CCOCC4)n3)cc2s1)NCc1ccco1 | > 25 µM (inactive) | > 25 µM | > 25 µM | 7.74 µM | 6.45 µM | 7.1 µM |
| COC(=O)Nc1nc2ccc(Sc3ccccc3)cc2[nH]1 | > 25 µM (inactive) | > 25 µM | > 25 µM | > 25 µM | > 25 µM | > 25 µM (inactive) |
| CSc1cc(-c2ccccc2)n(Cc2c(Cl)cccc2Cl)c(=O)c1C#N | > 25 µM (inactive) | > 25 µM | > 25 µM | 17.9 µM | > 25 µM | – |
| COc1ccc(C2=CC(c3ccc4c(c3)OCO4)c3c(c4ccccc4oc3=O)O2)cc1OC (stereo unspecified) | > 25 µM (inactive) | > 25 µM | > 25 µM | 20.6 µM | 17 µM | 18.8 µM (inactive) |
